# Tests used:
# [1] = test system: lasI/lasZ transcriptional fusion (lasR); conditions: λI14-MG4 (pPCS1), Seed et al., 1995, cited from earlier work
# [2] = test system: LasR; experiment: microbe, parasite or virus in culture; format: cell-based; conditions: Pseudomonas aeruginosa, read-out: concentration that stimulates half-maximal activity
# Protocol: Positive clones were tested in a Pseudomonas aeruginosa bioassay. PAC-JP2 (bearing the lasI/rhII double deletion) produces no PAI-1 but retains the ability to produce LasR. When PAI-1 is added exogenously, it can bind to LasR and induce the transcription of lasI. Test samples containing 40 nM PAI-1 (the concentration that stimulates half-maximal activity in this assay) were preincubated at 37° C. with anti-PAI-1 monoclonal antibody (618.4). Control samples containing 40 nm PAI-1 were preincubated at 37° C. with an equal volume of PBS. Following preincubation, the samples were tested in a Pseudomonas aeruginosa bioassay using PAO-JP2 containing a plasmid with a lasI/LacZ fusion. When the bacteria reached on OD600 of 0.8-1.0, the samples were assayed for the production of β-galactosidase, which was expressed as Miller Units of activity.
# [3] = test system: lymphocytes; conditions: in vivo (so in the source); Telford et al., 1998; cited from earlier work
# [4] = test system: tumor necrosis factor and interleukin-12; conditions: Telford et al., 1998; cited from earlier work
structure (smiles),measurement,setting,value
"CCCCCCCCCC(=O)CC(=O)NC1CCOC1=O [PAI-1, N-(3-oxo)-dodecanoyl-L-homoserine lactone]",lowest PAI-1 concentration that activates the construct,[1],10 pM
same,EC50,[1]; read-out: PAI-1 concentration for half-maximal expression,0.1 nM
same,EC50,[2],40 nM
same,effect on proliferation of lymphocytes,[3],inhibit the proliferation of lymphocytes
same,effect on expression of tumor necrosis factor and interleukin-12,[4],downregulates expression

# From patent US7384639B2, “Methods of treating or preventing an infectious disease using an immunogenic conjugate of a gram-negative bacterial autoinducer molecule” (University of Rochester, priority 1998, dated 2008)
